The values that follow come from article PMC11542830, “3-nitropyridine analogues as novel microtubule-targeting agents” (PLOS ONE, 2024).

The subject of one assay is HT-29 cells. Put plainly: Clonogenic assay on HT-29 cells. The class given is cell-based. The settings on record: Homo sapiens, 144 h; HT-29, 6 days of incubation, colonies counted; read-out: IC50 (HT-29 cell proliferation, clonogenic assay). The method, then: All experiments were performed under standard cell culture conditions at 37°C and 5% CO2. Colorectal adenocarcinoma HT-29 cells were seeded at 300 cells/well in triplicate in six well microtiter plates in RPMI-1640 medium supplemented with 10% fetal bovine serum and 25 μg/ml gentamicin (complete medium). Twenty-four hours later, the compounds were added in complete medium in final concentrations ranging from 10 μM to 0.1 nM. Cells were allowed to grow until they formed colonies for 6 days. The colonies were fixed with 100% methanol, stained with Trypan blue 0.4% in saline and the number of colonies was counted. The number of colonies in the treated wells was normalized to the number obtained in the untreated wells. Three biological independent experiments were performed for each compound.

In another assay the test system is primary cortical neurons. Put plainly: Neurite outgrowth assay. The following applies: Primary cortical neuron, rat primary cortical neurons, 72 hours. It is filed as cell-based, Sprague-Dawley rat. On the procedure: Neurite outgrowth assay was performed by Fluofarma (Pessac, France). Primary cortical neurons were harvested from E19 Sprague-Dawley (Janvier Labs) rat embryos, dissociated and plated at 10,000 per well in a tissue-culture treated 96 well plate, in neuronal medium (SM2 matrix independent growth medium, Stem Cell Technologies). Neurons were followed by phase contrast imaging with 1 image acquired every 4 hours, using an Incucyte Zoom (Essen BioScience) with a 20x objective. Four fields per well were acquired. After 24 hours, cells were treated with test compounds and neurite outgrowth was followed for 72 hours post-treatment. All measures were performed in triplicate in one experiment.
Neurite outgrowth kinetics were analyzed from each phase contrast image using the Neurotrack module of the Incucyte Zoom platform. Neurite length and branch points were obtained for each time point. The area under the curve (AUC) was calculated in each experimental condition (GraphPad Prism 6, GraphPad Software).

The test system of another assay is RPMI-8226. Put plainly: NCI60 5-dose screen, RPMI-8226. The class given is cell-based. The following applies: Homo sapiens, leukemia, Fig 1D, read-out: Log10 GI50 (RPMI-8226) (converted). The method, then:
(§1) The screening methodology used in the NCI60 Cell 5-Doses screen is described in detail at https://dtp.cancer.gov/discovery_development/nci-60/methodology.htm. Briefly, cells are seeded in 96 well plates at an appropriate density and incubated for 1 day. After 1 day, some of the plates are processed to determine a time zero density. To the remaining plates, compounds are added over a 5-log M concentration range (1 log dilutions from 10^-4M to 10^-8M). Plates are incubated for two additional days, then fixed and stained with sulforhodamine B. Growth inhibition is calculated relative to cells without drug treatment and the time zero control. The GI50 is the concentration of a compound that causes 50% growth inhibition, relative to the no drug control.

A further assay has as its system HOP-62. In words: NCI60 5-dose screen, HOP-62. It is filed as cell-based. The settings on record: Homo sapiens, non-small cell lung cancer, Fig 1D, read-out: Log10 GI50 (HOP-62) (converted). The method, then:
as §1

The subject of a further assay is HCT-116. In words: NCI60 5-dose screen, HCT-116. It is filed as cell-based. The following applies: Homo sapiens, colon cancer, Fig 1D, read-out: Log10 GI50 (HCT-116) (converted). The method, then: as §1
In another assay the test system is SF-295. In words: NCI60 5-dose screen, SF-295. The class given is cell-based. The following applies: Homo sapiens, CNS cancer, Fig 1D, read-out: Log10 GI50 (SF-295) (converted). On the procedure: as §1
The subject of another assay is SNB-75. In words: NCI60 5-dose screen, SNB-75. The class given is cell-based. The following applies: Homo sapiens, CNS cancer, Fig 1D, read-out: Log10 GI50 (SNB-75) (converted). The method, then: as §1
The subject of the next assay is M14. Put plainly: NCI60 5-dose screen, M14. It is filed as cell-based. The following applies: Homo sapiens, melanoma, Fig 1D, read-out: Log10 GI50 (M14) (converted). The method, then: as §1
Another assay deals with SK-MEL-28. In words: NCI60 5-dose screen, SK-MEL-28. The following applies: Homo sapiens, melanoma, Fig 1D, read-out: Log10 GI50 (SK-MEL-28) (converted). It is filed as cell-based. On the procedure:
as §1

The next assay concerns OVCAR-8. Put plainly: NCI60 5-dose screen, OVCAR-8. It is filed as cell-based. The following applies: Homo sapiens, ovarian cancer, Fig 1D, read-out: Log10 GI50 (OVCAR-8) (converted). On the procedure: as §1
For the next assay, the system named is SN12C. Put plainly: NCI60 5-dose screen, SN12C. It is filed as cell-based. The settings on record: Homo sapiens, renal cancer, Fig 1D, read-out: Log10 GI50 (SN12C) (converted). The method, then: as §1
Another assay relates to TK-10. Put plainly: NCI60 5-dose screen, TK-10. It is filed as cell-based. The settings on record: Homo sapiens, renal cancer, Fig 1D, read-out: Log10 GI50 (TK-10) (converted). The method, then: as §1
The subject of the next assay is MCF7. In words: NCI60 5-dose screen, MCF7. It is filed as cell-based. The settings on record: Homo sapiens, breast cancer, Fig 1D, read-out: Log10 GI50 (MCF7) (converted). On the procedure:
as §1

The subject of the next assay is MDA-MB-468. Put plainly: NCI60 5-dose screen, MDA-MB-468. The class given is cell-based. The settings on record: Homo sapiens, breast cancer, Fig 1D, read-out: Log10 GI50 (MDA-MB-468) (converted). On the procedure: as §1
[1] abbreviates: read-out: IC50 for branch point formation.
Where [2] appears, read: read-out: IC50 for neurite length.

Where two headings read alike, the source gives them in different places.

What is called GI50 is the concentration that inhibits growth by half. Consider `Cc1cc(C)cc(Nc2ccc([N+](=O)[O-])c(NCCN3CCOCC3)n2)c1` [Compound 4AZA2891, 6-(3,5-dimethylanilino)-2-(2-morpholinoethylamino)-3-nitropyridine], for which the IC50 stood at 5.4 nM in the assay with HT-29 cells, 8 nM in the assay with primary cortical neurons (setting [1]) and 10 nM with primary cortical neurons (setting [2]). Also, the 50% growth inhibitory concentration (GI50) was 36.3 nM in the assay on RPMI-8226; 30.2 nM with HOP-62; 14.8 nM with HCT-116; less than 10 nM in the assay on SF-295; less than 10 nM in the assay on SNB-75; 12 nM in the assay with M14. Besides, the 50% growth inhibitory concentration (GI50) in the assay with SK-MEL-28 is 2.75 µM; in the assay with OVCAR-8 it was 37.2 nM; in the assay with SN12C it was 70.8 nM; in the assay with TK-10, 12.9 µM; with MCF7, less than 10 nM; in the assay with MDA-MB-468 it was less than 10 nM.
For `Cc1ccnc(Nc2ccc([N+](=O)[O-])c(NCCN3CCOCC3)n2)c1` [Compound 4AZA2996, N^6-(4-methylpyridin-2-yl)-N^2-(2-morpholinoethyl)-3-nitropyridine-2,6-diamine], the IC50 in the assay on HT-29 cells turned out to be 4 nM; in the assay with primary cortical neurons (setting [1]) it was 7.4 nM; in the assay with primary cortical neurons (setting [2]), 9.5 nM. The 50% growth inhibitory concentration (GI50) in the assay with RPMI-8226 was 26.9 nM; with HOP-62, less than 10 nM; in the assay with HCT-116, less than 10 nM; in the assay with SF-295 it was less than 10 nM; in the assay on SNB-75 it was less than 10 nM; in the assay with M14 it was less than 10 nM. Moreover, the concentration for 50% growth inhibition (GI50) in the assay on SK-MEL-28 is 12.6 µM; with OVCAR-8, 20 nM; in the assay on SN12C, 47.9 nM; with TK-10, 18.6 µM; with MCF7 it was less than 10 nM; with MDA-MB-468, 27.5 nM.
